Results as given in patent US20060258754A1, “Method of treating endothelial dysfunction, oxidative stress and related diseases” (priority 2004, published 2006).

Columns and labels:
vascular mesenteric bed = test: Rat arteriolar mesenteric bed: acetylcholine-evoked decrease in perfusion pressure after 4-week oral treatment; assay type: in vivo, alloxan-diabetic male Wistar rats; conditions: for effect on microvascular endothelial dysfunction: chronic (4-week) oral administration, highest acetyl choline concentrations, FIG. 4
Description: Male Wistar rats, weighing between 230-250 g, fed regular chow, with free access to water were separated in four groups (n=10/each). The first two groups, termed normoglycemic, were treated with saline (0.1 mL/100 g/12 h) by the oral route (intragastric gavage) or untreated for four weeks. The second two groups, hyperglycemic, were treated with saline (0.1 mL/100 g/12 h) or treated with D-chiro-inositol (20 mg/kg/12 h) under the same protocol. […] Diabetes was induced by a single intravenous injection of 45 mg/kg alloxan as described by Sannomiya et al., 1997 ( ). Diabetes was diagnosed 96 h after injection by blood glucose assay >200 mg/dL. All protocols were approved by the local committee and follow the Guide for the Care and Use of Laboratory Animals published by the US National Institutes of Health (NIH Publication No. 85-23, revised 1996).
The mesentery was carefully removed by cutting close to the intestinal border with a small scissors. […] The vascular bed was rapidly perfused with warm KHS (37° C.; pH 7.4; gassed with 95% O2 in 5% CO2) in an open system with a constant flow of 4 ml/min maintained with a peristaltic pump. Alterations in perfusion pressure were continuously recorded in a four-channel polygraph (Narco Biosystems, Houston, Tex., USA) by means of a pressure transducer (P23 Gould Stratham, Oxnard, Calif., USA). After a 30 minute equilibration period, phenylephrine (1 to 5 μM) was infused by means of an infusion pump at a constant rate (0.1 ml/min) in order to achieve a stable perfusion pressure (100-120 mm Hg). Dose response curves were performed with vasodilators, i.e. acetylcholine (Ach; 10^-9 to 10^-3 M). Drugs were injected as 50 μL boluses, previously shown not to effect perfusion pressure in a side arm just above the cannula in the mesenteric artery. At least 6 separate experiments were performed each in duplicate.

[1] = system: renal vascular bed of perfused kidneys; test: Acute perfusion of diabetic rabbit kidneys: acetylcholine-induced decrease in perfusion pressure; parameters: species or system alloxan-diabetic rabbits; conditions: 3-week diabetic rabbit kidneys; for restoration of vasorelaxant effect of acetylcholine, DCI versus db-DCI: repeated perfusion experiment, 1 μM; for restoration of endothelial function (acetylcholine induced decrease in perfusion pressure): perfusion with 1 μM, first experiment
Description: Male California rabbits, weighing 2-2.5 kg, were provided by the vivarium of the Biomedicine Institute-UFC. Diabetes was induced by intraperitoneal injection of alloxan (150 mg/kg) and only animals with plasma glucose concentration above 200 mg/dl were included in the study. Age-matched euglycemic rabbits were used as controls.
Kidneys and aortic rings are harvested from diabetic rabbits after 3 weeks of alloxan injection. They are perfused with KHS containing 1 μM D-chiro-inositol, pinitol, dibutyryl D-chiro-inositol, myo-inositol or saline for 1 hour. Dose response curves for acetylcholine are then performed following prior phenylephrine vasoconstriction as described. At least 6 separate experiments will be performed each in duplicate.
Kidneys and aortic rings were harvested from diabetic rabbits after 3 weeks of alloxan injection. The animals were sacrificed under sodium pentobarbital anesthesia (Hypnol®, 150-200 mg/kg). […]. Rabbit kidneys were obtained from male New Zealand rabbits (1-1.5 kg) after cannulation of the renal artery in situ. [Thereafter the organ is rapidly perfused with warm KHS at 37° C., pH 7.4 and gassed with 95% O2 in 5% CO2 in an open system with a constant flow adjusted to yield 1 mL/g/min and maintained by a peristaltic pump. The alterations in perfusion pressure are continuously recorded in a four-channel polygraph (Narco Biosystems, Houston, Tex., USA) by means of a pressure transducer (P23 Gould Stratham, Oxnard, Calif., USA). After a 30 minute equilibration period, phenylephrine (1 to 5 μM) is infused by means of an infusion pump at a constant rate (0.1 ml/min) in order to achieve a stable perfusion pressure (100-120 mm Hg). Concentration-response curves are performed to the vasodilators, i.e. acetylcholine (Ach; 10^-9 to 10^-3 M). Drugs are injected as a 50 μL bolus, previously shown not to effect perfusion pressure in an arm side just above the cannula in the renal artery.] Following penectomy, the corpus cavernosum was dissected in Krebs solution and cleared of the tunica albuginea and surrounding tissues. Strips (2 cm) were mounted vertically in isometric baths (5 mL) in Krebs-Henseleit solution (37° C., pH 7.4 gassed with 95% O2 in 5% CO2) enriched with indomethecin (10 μM) and guanethedine (10 μM) in order to avoid prostanoid or neuronal norandrenergic interaction. After a 60 minute period for stabilization, tissues were precontracted with 10 μM phenylephrine in order to increase the basal tonus. Thereafter, frequency response curves to transmural electrical field stimulations (EFS—square wave pulses: 10 s train; 20 V, 0.5 ms, 2-16 Hz) were performed until two stable reproducible curves were attained. […]

[2] = system: bovine aortic endothelial cells; test: Superoxide assay in cells: ROS in high glucose (CM-H2DCFDA); assay type: cell-based; conditions: for reduction of ROS in cells: 30 mM glucose (ROS increased 2 fold vs 5 mM), 20, 50, 100 μM, FIG. 9; for maximal concentration for ROS reduction: 30 mM glucose, tested 20, 50, 100 μM
Description: Bovine aortic endothelial cells were incubated in 5 mM (control) or 30 mM (hyperglycemic) glucose for 2 hours and reactive oxygen species (ROS) determined fluorometrically using the probe CM-H2DCFDA as described by Brownlee et al. Cells were loaded with 10 μM CM-H2DCFDDA, incubated for 45 min at 37°, and then analyzed in an HTS 7000 Bio assay Fluorescent Plate Reader using HT software. ROS production is reported as nmol/mL based on a standard curve produced with H2O2.

[3] = listed as dibutyryl D-chiro-inositol

Row | Compound | effect on microvascular endothelial dysfunction (vascular mesenteric bed) | effect on microvascular endothelial dysfunction (vascular mesenteric bed; listed as D-chiro-inositol) | maximal decrease in perfusion pressure to acetylcholine (vascular mesenteric bed; tissues from alloxan-diabetic rats treated with D-chiro-inositol 20 mg/kg/12 h by gavage for 4 weeks, saline-treated diabetic 23±5%, normoglycemic 61±3.7%) [%] | restoration of vasorelaxant effect of acetylcholine, DCI versus db-DCI [1] | reduction of ROS in cells [2] | reduction of ROS in cells ([2]; listed as D-chiro-inositol) | maximal concentration for ROS reduction [2] [µM] | effect on microvascular endothelial dysfunction (vascular mesenteric bed; [3]) | restoration of endothelial function (acetylcholine induced decrease in perfusion pressure) ([1]; listed as db-DCI) | restoration of endothelial function (acetylcholine induced decrease in perfusion pressure) [1, 3] | reduction of ROS in cells ([2]; listed as Dibutyryl-DCI)
1 | OC1C(O)C(O)C(O)C(O)C1O [DCI, D-chiro-inositol] | approximately equally effective | effective | 52±6 | partially restored | reduced back to basal concentrations in a dose dependant manner | reduced to basal concentrations in a dose dependent manner | 50 | – | – | – | –
2 | CCCC(=O)O[C@@H]1[C@@H](O)[C@@H](O)[C@H](O)[C@H](O)[C@H]1OC(=O)CCC [dbDCI, 3,4-dibutyryl-D-chiroinositol] | perhaps slightly better than pinitol and DCI | – | – | partially restored | reduced back to basal concentrations in a dose dependant manner | – | 20 | perhaps slightly better than pinitol and D-chiro-inositol | completely restored endothelial function | restored to normal | greater effect of reducing ROS than DCI at lower concentrations
